# pKd: −log10 of the molar value.
# Target: α7 nAChR subtype (Rattus norvegicus, UniProt Q05941)
# Assay type: binding
# Conditions: read-out: KD of the radioligand (saturation curve, one site model)
# α7 nAChR subtype, sequence (Q05941 23-502 limits assumed): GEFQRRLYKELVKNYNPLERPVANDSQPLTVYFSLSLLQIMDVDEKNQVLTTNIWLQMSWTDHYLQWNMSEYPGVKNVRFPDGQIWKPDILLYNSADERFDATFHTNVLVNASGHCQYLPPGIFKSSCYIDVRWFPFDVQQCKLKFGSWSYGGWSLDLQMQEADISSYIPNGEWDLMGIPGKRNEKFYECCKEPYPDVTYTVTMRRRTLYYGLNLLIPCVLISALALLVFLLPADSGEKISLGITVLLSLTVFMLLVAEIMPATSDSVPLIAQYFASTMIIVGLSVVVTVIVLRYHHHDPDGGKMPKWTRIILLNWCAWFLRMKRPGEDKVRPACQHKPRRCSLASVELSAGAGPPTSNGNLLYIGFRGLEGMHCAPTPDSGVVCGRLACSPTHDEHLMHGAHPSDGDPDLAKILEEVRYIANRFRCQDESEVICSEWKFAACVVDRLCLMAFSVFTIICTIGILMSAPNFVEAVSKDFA
substance,measurement,value
^125I-α-Bungarotoxin [^125I-α-BTX],pKd,8.78

# From patent publication US20050239774A1 (priority 2002, published 2005)
